Article PMC6856805, “Environmental Risk Assessment for the Active Pharmaceutical Ingredient Mycophenolic Acid in European Surface Waters” (Environmental Toxicology and Chemistry, 2019)
In brackets after ≈: the same amount, converted by molar mass. Read-outs that look alike come from different tables or passages of the source.

How the values were obtained:
[1] = Photodegradation in buffered aqueous solutions under natural sunlight; format: physicochemical
Method: In contrast, Franquet‐Griell et al. (2017a) reported MPA k photo values of 0.0284 min^–1 for UV‐C irradiation and 0.004 min^–1 in a Solar Box artificial sunlight reactor. […] Giebułtowicz and Nałęcz‐Jawecki (2016) presented a UV‐visual light spectrum of MPA in their Supporting Information with a λmax at 215 nm and 2 sequentially lower peaks at 248 and 297 nm, confirming UV‐C photosensitivity.
The photodegradation of MPA in buffered aqueous solutions at pH 5, 7 and 9 under natural sunlight was determined by Syntex, 'closely following the US FDA guideline' (Nicholson 1994)). MPA was used in solutions of 3.12×10^–5 M (= 10 mg/L); the pH 5 solution was buffered with 0.1 M sodium acetate, the pH 7 solution with 0.1 M monobasic sodium phosphate and the pH 9 solution with 0.1 M sodium borate buffer. As actinometers (reference photodegradants) p-nitroanisole at 1.00×10^–5 M was used, with 4.96×10^–3 M pyridine for pH 5, with 6.20×10^–3 M pyridine for pH 7 and with 9.93×10^–3 M pyridine for pH 9. In each of the seasonal studies, hermetically closed quartz tubes with either one of the MPA solutions or the corresponding actinometer solutions were exposed to natural sunlight in triplicate. Single control tubes containing either MPA solution or actinometer solution, both at different pHs, were wrapped in aluminium foil and covered in black plastic and exposed in parallel. The tubes were set up in Palo Alto, Ca, USA at 37° 25' N, in parallel on a board painted black, which was exposed on a stand pointing due […] at an angle of 30°. Data for the four seasonal experiments, with date, time of initiation and end, sampling intervals, weather, cloud cover and temperature, are given in the report. At each of several equivalent timepoints, one set of tubes was removed from sunlight, analysed by HPLC and compared with the respective dark control. The substance loss of p-nitroanisole, with known quantum yield, in the […] served to calibrate the loss of MPA in the test tubes and determine the photolytic rate constants kphoto and half-lives for MPA at different pH levels and insolations over the seasons.

[2] = test system: bacteria; test: Derivation of provisional PNEC for antibiotic resistance (PNECABR)
Method: Antibiotic resistance risk is assessed through comparing PECs or MECs with a PNEC for formation or maintenance of antibiotic resistance (PNECABR). There is no universally accepted or regulatory algorithm for deriving a reliable PNECABR for bacteria, so for the time being this is approximated by applying assessment factors to bacterial minimal inhibitory concentrations (MICs). […] To be fully consistent with Bengtsson‐Palme and Larsson's (2016) approach to PNECABR derivation, the authors were contacted for help; they (J. Bengtsson‐Palme, Department of Infectious Diseases, Institute of Biomedicine, The Sahlgrenska Academy, University of Gothenberg, Gothenberg, Sweden, personal communication) state that “we only use species with 10 or more MIC observations, to avoid drawing conclusions from insufficient data […] . The only species with >10 observations in the Noto et al. (1969) paper is S[taphylococcus] aureus. In addition, when the MIC1% are selected, only one MIC [J.O.Straub's italics] value is selected per species (the lowest). Finally, the uncertainty factor for low sampling numbers is calculated as: (observed lowest MIC) × (number of tested species) ÷ 41.” Both these provisional PNECABR values were derived from the MPA MICs; the lower was selected and compared with the PECs and MECs.
Noto et al. (1969) tested the activity of MPA against various microorganisms, both fungi and some strains of bacteria. […] Higher inhibition of MPA was shown against pathogenic fungi of the genera Candida, Willia, Cryptococcus, Microsporum, Aspergillus, and Trichophyton, with MICs ranging from 3.9 to 500 mg/L (Noto et al. 1969).

[3] = Risk quotient PEC/PNEC or MEC/PNEC for STPs and surface freshwaters
Method: The potential risk for STPs and surface freshwater organisms was characterized by dividing the various PECs and MECs by the respective PNECs for MPA (Committee for Medicinal Products for Human Use 2015). Further risk assessments were performed for antibiotic resistance risk due to the described antibiotic activity of MPA, risk for environmental top predators, and also risk for humans through so‐called secondary poisoning from uptake of water or fish.

[4] = cited from earlier work; for k photo: ref Franquet‐Griell et al. (2017a)
[5] = test system: Rhaphidocelis (Pseudokirchneriella) subcapitata; details: cited from earlier work
[6] = test system: daphnid; test: animal or person; details: read-out: 48‐h median effect concentration (EC50)

`COc1c(C)c2c(c(O)c1CC=C(C)CCC(=O)O)C(=O)OC2` [MPA, 6‐(1,3‐dihydro‐4‐hydroxy‐6‐methoxy‐7‐methyl‐3‐oxo‐5‐isobenzofuranyl)‐4‐methyl‐4‐hexenoic acid] showed a k photo ([1]; pH 5, summer) of 0.0059 min^–1, a k photo ([1]; pH 5, winter) of 0.0017 min^–1 and a k photo ([1]; pH 7, summer) of 0.018 min^–1. The k photo ([1]; pH 7, winter) was 0.0049 min^–1, the k photo ([1]; pH 9, summer) was 0.031 min^–1 and the k photo ([1]; pH 9, winter) was 0.0087 min^–1. For the same compound, the “provisional PNECABR (rounded down, selected)” value ([2]; lower of the 2 values) was 64 µg MPA/L, the “first provisional PNECABR” value ([2]; lowest MIC divided by 100, following Kümmerer and Henninger (2003)) was 312.5 µg/L and the “second provisional PNECABR” value ([2]; procedure of Bengtsson‐Palme and Larsson (2016), before rounding) was 76 µg/L. For the same compound, the “highest PEC‐based risk quotient for STPs” value ([3]; PECSTP 8.83 µg/L / PNECSTP) was 0.00128, the “highest MEC‐based risk quotient for STPs” value ([3]; STP effluent MEC 4.19 µg/L / PNECSTP) was 0.0006 and the “Risk quotient (PNECEC10), Average initial EMA EU PEC” value ([3]; STP removal 0%) was 0.516. For the same compound, the “Risk quotient (PNECEC10), Average refined PEC per country” value ([3]; STP removal 12%) was 0.141, the “Risk quotient (PNECEC10), Guadalquivir catchment low flow 99th percentile ePiE PEC” value ([3]; STP removal 12%) was 21.41 and the “Risk quotient (PNECEC10), Guadalquivir catchment low flow median ePiE PEC” value ([3]; STP removal 12%) was under 0.002. For the same compound, the “Risk quotient (PNECEC10), Guadalquivir catchment mean flow 1st percentile ePiE PEC” value ([3]; STP removal 12%) was under 0.002, the “Risk quotient (PNECEC10), Guadalquivir catchment mean flow 99th percentile ePiE PEC” value ([3]; STP removal 12%) was 9.474 and the “Risk quotient (PNECEC10), Guadalquivir catchment mean flow median ePiE PEC” value ([3]; STP removal 12%) was under 0.002. For the same compound, the “Risk quotient (PNECEC10), Highest refined PEC per country” value ([3]; STP removal 12%) was 0.917, the “Risk quotient (PNECEC10), Lowest refined PEC per country” value ([3]; STP removal 12%) was 0.003 and the “Risk quotient (PNECEC10), Median refined PEC per country” value ([3]; STP removal 12%) was 0.100. For the same compound, the “Risk quotient (PNECEC10), Ouse catchment low flow 99th percentile ePiE PEC” value ([3]; STP removal 12%) was 4.967, the “Risk quotient (PNECEC10), Ouse catchment low flow median ePiE PEC” value ([3]; STP removal 12%) was 0.336 and the “Risk quotient (PNECEC10), Ouse catchment mean flow 1st percentile ePiE PEC” value ([3]; STP removal 12%) was 0.002. The “Risk quotient (PNECEC10), Ouse catchment mean flow 99th percentile ePiE PEC” value ([3]; STP removal 12%) was 1.226, the “Risk quotient (PNECEC10), Ouse catchment mean flow median ePiE PEC” value ([3]; STP removal 12%) was 0.083 and the “Risk quotient (PNECEC10), Rhine catchment low flow 99th percentile ePiE PEC” value ([3]; STP removal 12%) was 4.597. The “Risk quotient (PNECEC10), Rhine catchment low flow median ePiE PEC” value ([3]; STP removal 12%) was 0.036, the “Risk quotient (PNECEC10), Rhine catchment mean flow 1st percentile ePiE PEC” value ([3]; STP removal 12%) was under 0.002 and the “Risk quotient (PNECEC10), Rhine catchment mean flow 99th percentile ePiE PEC” value ([3]; STP removal 12%) was 1.157. For the same compound, the “Risk quotient (PNECEC10), Turia catchment low flow median ePiE PEC” value ([3]; STP removal 12%) was 0.300, the “Risk quotient (PNECEC10), Turia catchment mean flow 1st percentile ePiE PEC” value ([3]; STP removal 12%) was under 0.002 and the “Risk quotient (PNECEC10), Turia catchment mean flow 99th percentile ePiE PEC” value ([3]; STP removal 12%) was 0.955. The “Risk quotient (PNECEC10), Turia catchment mean flow median ePiE PEC” value ([3]; STP removal 12%) was 0.048, the “Risk quotient (PNECEC10), Average refined PEC per country” value ([3]; STP removal 43.6%) was 0.100 and the “Risk quotient (PNECEC10), Highest refined PEC per country” value ([3]; STP removal 43.6%) was 0.660. For the same compound, the “Risk quotient (PNECEC10), Lowest refined PEC per country” value ([3]; STP removal 43.6%) was 0.002, the “Risk quotient (PNECEC10), Median refined PEC per country” value ([3]; STP removal 43.6%) was 0.072 and the “Risk quotient (PNECEC10), Average refined PEC per country” value ([3]; STP removal 73.1%) was 0.064. The “Risk quotient (PNECEC10), Highest refined PEC per country” value ([3]; STP removal 73.1%) was 0.422, the “Risk quotient (PNECEC10), Lowest refined PEC per country” value ([3]; STP removal 73.1%) was under 0.002 and the “Risk quotient (PNECEC10), Median refined PEC per country” value ([3]; STP removal 73.1%) was 0.047. For the same compound, the “risk quotient for the PNECNOEC” value ([3]; initial use‐based Europe‐wide PEC) was 2.27, the “Risk quotient (PNECEC10), Maximum MEC” value ([3]; surface water MECs) was 1.131 and the “Risk quotient (PNECEC10), Median MEC” value ([3]; surface water MECs) was about 0.003. For the same compound, the k photo ([4]; Solar Box artificial sunlight reactor) was 0.004 min^–1, the k photo ([4]; UV‐C irradiation) was 0.0284 min^–1 and the UV-C photodegradation ([4]; pH 7, 20 mg/L MPA, ref Marín‐García (2015)) was “negligible photodegradation”. The ErC50 ([5]; GMMC, 24 h dark + 72 h light, ref European Chemicals Agency 2018) was 68 µg/L, the ErC10 [5] was 12 µg/L and the NOErC [5] was 9 µg/L. It also gave an EC50 [6] of 755 mg/L (≈ 2360 µM).
